Source: the METLIN SMRT retention time set (Domingo-Almenara et al. 2019)

Test: gradient 5% acetonitrile 3 min, to 50% in 2 min, to 85% in 15 min, held 3 min, 100 µL/min
Details: column: Zorbax Extend-C18 2.1 x 50 mm; eluents: water / acetonitrile, 0.1% formic acid
Summary of the method: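 The mobile phases were water and acetonitrile, each with 0.1% formic acid, pumped at 100 μL/min through a Zorbax Extend-C18 column (2.1 × 50 mm, 1.8 μm). Pure standards were injected as mixtures of ~100 molecules and detected by a quadrupole time-of-flight mass spectrometer in positive and negative ionization mode. Retention time came from computationally picked adduct peaks, each inspected by hand.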

SMILES	RP-LC retention time
CCOC(=O)c1c(C)[nH]c(C)c1S(=O)(=O)N1CCC(C(=O)Nc2ccc(C)c(N(C)C)c2)CC1	616 s
CCCCCn1c(=O)c2ccccc2n(Cc2nc(-c3cccc(C)c3)no2)c1=O	1310 s
O=C(C1=CN(c2ccc3c(c2)OCCO3)c2cc(Cl)ccc2S1(=O)=O)N1CCCC1	838 s
CNC(=O)c1cnn(-c2ccc(-c3nc(C(C)C)no3)cn2)c1C	780 s
CCc1cc(=O)n(CC(=O)Nc2ccc(OC)cc2)c(N2CCOCC2)n1	699 s
COc1cccc(N2CCN(C(=O)C3CCCN(c4ncnc5c4nc4n5CCCCC4)C3)CC2)c1 (centres undefined)	627 s
CSc1cccc(NC(=O)N2CCC[C@@H]2C(=O)NCc2csc(-c3ccccc3)n2)c1	888 s
Cc1ccc(C)c(-c2coc(-c3ccc(NC(=O)NCc4ccc(F)cc4)cc3)n2)c1	1190 s
Cc1ccc(-n2nc(N3CCCC(C(=O)Nc4ccc(F)cc4F)C3)ccc2=O)cc1Cl (centres undefined)	1020 s
CN(C)S(=O)(=O)N1CCc2nc(NC(=O)c3cccs3)sc2C1	729 s
CN(C)C(=O)C1CCc2nc(N3CCN(C(=O)C4CCC4)CC3)sc2C1 (centres undefined)	590 s
COc1cc(OC)cc(N2C(=O)C3N=NN(Cc4nc(-c5cccc(Cl)c5)no4)C3C2=O)c1 (centres undefined)	1020 s
Cc1cc(C)n(Cc2ccc(C(=O)N3CCC(c4noc(-c5cccnc5)n4)C3)o2)n1 (centres undefined)	696 s
Cc1noc(C)c1S(=O)(=O)N1CCC2(CCC(CN(C)Cc3ccncc3)O2)CC1 (centres undefined)	604 s
Cc1cnc(-c2ccccc2)n1C1CN(Cc2cccc(C#N)c2)C1	559 s
COc1ccc(Cl)cc1NC(=O)Cn1c(C)nc2c(sc3nc(-c4ccccc4)ccc32)c1=O	1180 s
Cc1ccc(Cn2cc(-c3ccncc3)cc2C(=O)N2CCC(N3CCCCC3)CC2)cc1	564 s
Cc1nnc(N2CCCC(C(=O)NCc3cccc(Cl)c3)C2)c2nn(-c3ccccc3)c(C)c12 (centres undefined)	674 s
Cc1ccc(NC(=O)Cn2cnc(C)c(C)c2=O)cc1	675 s
O=C(CSc1nnc2scc(-c3ccc(Cl)cc3)n12)Nc1ccccc1F	839 s
CCC(C)NC(=O)Cn1c(=O)n(CC(C)C)c(=O)c2nscc21 (centres undefined)	735 s
COc1ccc(-c2cn3c(CC(=O)N4CCOCC4)csc3n2)cc1OC	607 s

SMILES	RP-LC retention time
COc1ccc(-c2cc3n(n2)CCCN(C(=O)NCc2ccccc2)C3)cc1OC	929 s
O=C(c1cn(-c2ccc(S(=O)(=O)N3CCCCC3)cc2)cn1)N1CCN(c2ccccn2)CC1	633 s
CCN(CC)S(=O)(=O)c1cccc(-c2nnc(-c3cccc(C)c3)o2)c1	1120 s
CC(Cc1ccco1)NC(=O)C1CCN(S(=O)(=O)c2ccc3c(c2)sc(=O)n3C)CC1 (centres undefined)	807 s
CC(=O)c1cccc(NC(=O)CCc2c(C)nn(-c3cc(N4CCCC4)ncn3)c2C)c1	765 s
CCOC(=O)COc1ccccc1C1C(C(=O)OC)=C(C)NC2=C1C(=O)c1ccccc12 (centres undefined)	957 s
CCOC(=O)c1cnc2nc(C)ccc2c1Nc1ccc(F)cc1	672 s
CC(=O)c1ccc(NC(=O)CC2COc3ccccc3NC2=O)cc1 (centres undefined)	677 s
O=C(c1cc(C2CC2)[nH]n1)N1CCC(F)(F)C(COCC2CC2)C1 (centres undefined)	805 s
COc1ccc(OC)c(NC(=O)C2CCCN2S(=O)(=O)c2ccc3c(c2)CC(C)N3C(C)=O)c1 (centres undefined)	863 s
Cc1ccc(S(=O)(=O)N2CC(=O)N(c3ccc(F)cc3)C(C)(C(=O)NCc3ccccc3)C2)cc1 (centres undefined)	968 s
O=S(=O)(Cc1ccccc1)N1CCCC(Cc2nncn2CC2CC2)C1 (centres undefined)	631 s
CC1CCN(C(=O)c2cn(CC3CCCO3)cc3c(=O)n(-c4ccccc4)nc2-3)CC1 (centres undefined)	766 s
O=C(COc1ccc(Cl)cc1Cl)N(Cc1ccccn1)Cc1ccco1	830 s
CCOC(=O)C1CCN(C(=O)c2nc(-c3ccnc(N4CCCC4)c3)no2)CC1	673 s
CN1CCCC1c1nc(C2CN(C(=O)c3n[nH]c(=O)c4ccccc34)C2)no1 (centres undefined)	560 s
Cc1nnsc1C(=O)Nc1nnc(-c2ccnn2C)o1	665 s
CCCCC(C)C(=O)NC1CCN(C2=NS(=O)(=O)C(c3ccc(C)c(C)c3)=C2C)CC1 (centres undefined)	987 s
O=C(CCc1c(-c2ccc(Cl)cc2)nc2ccccn12)NCc1ccccn1	571 s
CNc1nc(Nc2ccc(F)cc2)nc2ccccc12	655 s
O=C(Cn1cc(Cl)cn1)N1CCCC1c1cccc(F)c1 (centres undefined)	836 s
Cc1cc2c(c(=O)n(-c3ccccc3)c(=O)n2CC(=O)Nc2ccc(Br)cc2)n1C	877 s

SMILES	RP-LC retention time
O=C1C(=O)N(C2CCN(C(=O)c3ccc(Br)o3)CC2)CCN1Cc1ccccc1	706 s
CC(C)CN1CCn2cc(C(=O)NCc3ccc(F)cc3Cl)nc2C1	646 s
O=C(Nc1ccc(F)cc1)c1nnc(CSCC(=O)N2CCN(c3ccccn3)CC2)s1	657 s
O=C(c1cnccn1)N1CCC(Oc2nc3ccccc3s2)CC1	755 s
CC(C)(C)c1ccc(-c2noc(Cn3c(=O)n(-c4ccc(Cl)cc4)c(=O)c4sccc43)n2)cc1	1280 s
CC1CCN(S(=O)(=O)c2cc(-c3nnc(C4CCCC4)o3)co2)CC1	1080 s
O=C(NCCc1cccs1)C1CCc2nc(N3CCCC3)ncc2C1 (centres undefined)	857 s
CC1CS(=O)(=O)N(c2ccc(C(=O)N3CCN(c4ccccn4)CC3)cc2)C1=O (centres undefined)	554 s
O=C(NCCCN1CCCC1)C1CCN(c2nc3cccnc3s2)CC1	585 s
Cc1nn(-c2ccc(F)cc2)c(C)c1S(=O)(=O)N1CCN(c2ccccn2)CC1	683 s
O=C(NCc1ccc(Cl)cc1)C1CCCN(c2ncnc3c2nc2n3CCCCC2)C1 (centres undefined)	812 s
NS(=O)(=O)c1cccnc1Nc1cccc(Br)c1	889 s
Cc1cc(N2CCOCC2)n2nc(CN3CCN(c4ccccc4)CC3)nc2n1	588 s
Cc1cc(=O)n(CC(=O)Nc2ccc(Br)cc2)c(N2CCCC2)n1	666 s
Cc1nc(C)c(C(=O)Nc2ccc(F)cc2Cl)s1	820 s
COCC1(F)CCN(Cc2c(-c3ccc(C)cc3)nc3c(C)cccn23)CC1	608 s
CNC(=O)c1cc(N2CCOCC2)nc2ccc(F)cc12	590 s
Cc1ccc(CN2CCN(CC(=O)Nc3ccc(Cl)cn3)C(=O)C2=O)cc1	759 s
COc1cc(-c2oc3cc(O)cc(O)c3c(=O)c2OC[C@@H]2OC(O[C@@H]3O[C@@H](C)[C@H](O)[C@@H](O)[C@H]3O)[C@@H](O)[C@H](O)[C@@H]2O)ccc1O (some centres undefined)	638 s
CCOC(=O)c1nc(NCCCN2CCN(Cc3ccccc3)CC2)c2ccccc2n1	588 s
